Series [1] relates to MDA-MB-231 human breast tumor xenographs. The series is described as follows: Antitumor efficacy in nude mice with MDA-MB-231 xenographs, 1st experiment. The series is classed as in vivo, athymic nude (nu/nu) mice. The note with it: for Day 60 Rel Tum Vol: mean ± SEM. As to the method: The aims of the 1st experiment were to determine a dose-response curve for the (1:4 mol:mol) calcium pterin suspension, to compare the antitumor activity of this suspension to pterin alone (pterin control), and to test the effect of CaPterin mega-dosing at 100 mg/kg/day. Antitumor efficacy was evaluated in nude mice with MDA-MB-231 human tumor xenographs by Perry Scientific (San Diego, Calif.). In the 1st experiment, twenty-three athymic nude (nu/nu) female mice, ages 3-4 weeks, were purchased from Harlan Sprague Dawley, Inc. (Indianapolis, Ind.). 5×10^6 MDA-MB-231 cancer cells were injected subcutaneously into the right flank of each mouse. When tumors reached 3-5 mm in size, twenty mice were divided into four treatment/control groups of five mice each. The four treatment groups were: (1:4 mol:mol) calcium pterin (7 mg/kg/day); pterin (21 mg/kg/day); (1:4 mol:mol) calcium pterin (21 mg/kg/day); and sterile water control. Two mice with outlying tumor sizes or non-tumor takes were excluded shortly after treatment began: one from the pterin group and one from the control group. […] Only one outlier persisted >4 days, for 14 days. Also excluded from the metabolic analysis in the 1st experiment was one mouse from each of the four experimental groups mega-dosed by oral gavage with 100 mg/kg/day CaPterin for tip to 31 days to test for toxicity. All the other mice in the 1st experiment persisted ≧60 days without complications.
The control mice in the 1st experiment were treated with sterile water while the control mice in the 2nd experiment were untreated to evaluate the effect of mouse handling and gavaging upon tumor growth. Daily dosing was for 7 days per week. Animals were restrained but not anesthetized for oral dosing. Tumors were measured twice weekly with calipers and body weights taken twice weekly on the day of tumor measurements. Blood was collected from all animals via cardiac puncture at termination (after 70 to 98 days of treatment) and processed to EDTA plasma for analysis. Tumor size measurements for the control group in the 2nd experiment on days 4 and 7 were missed due to a technical oversight.
The MDA-MB-231 human breast tumor cell lines were supplied by SRI International (Menlo Park, Calif.) and propagated using standard in vitro cell expansion methods. Briefly, cells were grown in L-15 media from Gibco (Cat. No. 11415-064) supplemented with 2 mM L-Glutamine and 10% Fetal Bovine Serum (FBS). The cells were cultured in an incubator with 5% CO2, 37.5° C., and 80% humidity. Cells were harvested with 0.25% (w/v) Trypsin-0.03% (w/v) EDTA solution. Cells were prepared for injection by standard methods to appropriate concentrations. Animals were temporarily restrained but not anesthetized for the inoculation of the tumor cells. Animals were subcutaneously injected with the tumor cells in a 100-200 μl volume.
Each animal was individually tracked for tumor growth by external caliper measurements of protruding tumor. Primary tumor sizes were measured using calipers and an approximate tumor volume calculated using the formula 1/2 (a×b^2), where b was the smaller of two perpendicular diameters.
For each group, the mean and standard error of the mean (SEM) of the ratio V/Vo, Relative Tumor Volume (RTV), were plotted as a function of treatment time after inoculation. V0 was the tumor volume at Day 0, when treatment began.

A short description of series [2]: Toxicity by body weight changes in nude mice. The series is classed as in vivo, athymic nude mice. As to the method:
The aims of the 1st experiment were to determine a dose-response curve for the (1:4 mol:mol) calcium pterin suspension, to compare the antitumor activity of this suspension to pterin alone (pterin control), and to test the effect of CaPterin mega-dosing at 100 mg/kg/day. Antitumor efficacy was evaluated in nude mice with MDA-MB-231 human tumor xenographs by Perry Scientific (San Diego, Calif.). In the 1st experiment, twenty-three athymic nude (nu/nu) female mice, ages 3-4 weeks, were purchased from Harlan Sprague Dawley, Inc. (Indianapolis, Ind.). 5×10^6 MDA-MB-231 cancer cells were injected subcutaneously into the right flank of each mouse. When tumors reached 3-5 mm in size, twenty mice were divided into four treatment/control groups of five mice each. The four treatment groups were: (1:4 mol:mol) calcium pterin (7 mg/kg/day); pterin (21 mg/kg/day); (1:4 mol:mol) calcium pterin (21 mg/kg/day); and sterile water control. […]
The control mice in the 1st experiment were treated with sterile water while the control mice in the 2nd experiment were untreated to evaluate the effect of mouse handling and gavaging upon tumor growth. […] Tumors were measured twice weekly with calipers and body weights taken twice weekly on the day of tumor measurements. […]

Series [3] can be described thus: Theoretical body fluid level calculated from dose. The note with it: 69 mg/kg ÷ 0.7 L/kg ÷ 454.4 mg/mmol; mouse. As to the method:
DCP at the highest dose tested in mice in this study, 69 mg/kg, yields the following theoretical body fluid level: [DCP]fluid=69 mg/kg÷0.7 L/kg÷454.4 mg/mmol=220 μM.

The subject of another series is HBe antigen. The series is described as follows: Sera HBeAg ELISA in HBV transgenic mice. As to conditions: males. The series is classed as in vivo. As to the method:
(§1) Experimental design. DCP was administered per os, once daily for 14 days to randomly assigned HBV transgenic mice at 23, 7.3, and 2.3 mg/(kg d). ADV was used as a positive control at 10 mg/(kg d) using the same treatment schedule and vehicle (0.4% CMC). On day 14, mice were euthanized to collect serum and liver samples to perform liver HBV DNA, liver core and serum HBe assays, serum cytokine/chemokine profiles, and IDO metabolite assays.
Sera HBeAg. Whole blood samples were obtained during necropsy by cardiac puncture, and processed for an HBeAg-specific ELISA (International Immuno Diagnostics, Foster City Calif.) (Money J D, Motter N E, Taro B, Lay M & Fairman J. Efficacy of cationic lipid-DNA complexes (CLDC) on hepatitis B virus in transgenic mice. Antiviral Res 2008; 79:71-79). Using the known PEI (Paul Ehrlich Institute) units for the calibrator, PEI units were formulated for the serial dilutions of the positive serum. A graph was generated, and extrapolation was used to assign a PEI unit value for each sample.
(In an ELISA, binding on a coated surface is turned into a signal by an enzyme label.)

The subject of series [4] is hepatitis B core antigen (HBcAg). The series is described as follows: Liver HBcAg assay in HBV transgenic mice. The series is classed as in vivo. As to conditions: 2.3 mg/(kg d). As to the method:
as §1
Liver HBcAg assay. Liver biopsies were processed for detection of hepatitis B core antigen (HBcAg) (Motley J D, Motter N E, Taro B, Lay M & Fairman J. Efficacy of cationic lipid-DNA complexes (CLDC) on hepatitis B virus in transgenic mice. Antiviral Res 2008; 79:71-79). Three different parameters were obtained from each tissue section. […] The first two parameters were obtained by counting cells surrounding central veins as follows: the total number of cells, the number of cells with stained nuclei, and the number of cells with stained cytoplasms. The identities of the samples were blinded to person counting. The stained nuclei counts or the stained cytoplasm counts were divided by the total cells. Three central vein areas were counted for each slide sample. For the third parameter, a field not in a central vein area was counted for the total number of stained nuclei. One-quarter of the field was counted. Three such fields were counted per liver section. The identity of the samples was blinded to the person reading the slides.

Take (1:4 mol:mol) calcium pterin [CaPterin]: the “antitumor activity (tumor growth vs control)” value in series [1] (7 mg/kg/day) is recorded as “non-significant”; in series [1] (21 mg/kg/day), “significantly inhibits”. The “Day 60 Rel Tum Vol” value in series [1] (7 mg/kg/day oral) worked out at 24.0 ± 9.0; in series [1] (21 mg/kg/day oral), 7.9 ± 1.3. The “T/C ratio (mean treatment tumor volume to mean control tumor volume)” value in series [1] (21 mg/kg/day, after 60 days) was 41%. The “Spearman rank order correlation rs, Day 60 Relative Tumor Volume versus dose” value in series [1] (n=14, p=0.005) came out at 0.70. Moreover, in series [2] (mega-dosed 100 mg/kg/day oral gavage for up to 31 days), the “toxicity (appreciable weight loss)” value is on record as “no observed toxicity”. Further, in series [2] (mega-dosed group 100 mg/kg/day, one mouse, after 32 days), the “greatest weight loss (body weight)” value was found to be 8.1%.
`Nc1nc([O-])c2nccnc2n1.Nc1nc([O-])c2nccnc2n1.[Ca+2]` [DCP, dipterinyl calcium pentahydrate]: the “theoretical body fluid level [DCP]fluid” value in series [3] is 220 µM. For the same compound, the “HBe antigen (ELISA) versus controls” value with HBe antigen (2.3 mg/(kg day)) and in the series on HBe antigen (7.3 mg/(kg day)) was “significant treatment increases” throughout. The “HBcAg Stained nuclei/total, Female levels (mean ± SEM)” value in series [4] (female) was 0.36 ± 0.046. Besides, the “HBcAg Stained nuclei/total, Male levels (mean ± SEM)” value in series [4] (male) is reported as 0.51 ± 0.041.

The values above are taken from US20120251495A1, “PTERIN BASED THERAPIES FOR INFLAMMATORY CONDITIONS” (priority 2008, published 2012).
